# Measurements as given in ChEMBL document CHEMBL5370593, “Discovery and In Vitro Characterization of SPL028: Deuterated N,N-Dimethyltryptamine” (ACS Med Chem Lett, 2023).
# Experiments:
# Assay type in all cases: cell-based
# [1] = biological target: Alpha-2A adrenergic receptor (Homo sapiens) (UniProt P08913); assay: Displacement of [3H]-rauwolscine from human recombinant adrenergic alpha-2A receptor expressed in CHO-K1 cells at 10 uM incubated for 60 mins by spectrophotometric analysis relative to control
# Chain of Alpha-2A adrenergic receptor (Homo sapiens) (P08913 whole entry): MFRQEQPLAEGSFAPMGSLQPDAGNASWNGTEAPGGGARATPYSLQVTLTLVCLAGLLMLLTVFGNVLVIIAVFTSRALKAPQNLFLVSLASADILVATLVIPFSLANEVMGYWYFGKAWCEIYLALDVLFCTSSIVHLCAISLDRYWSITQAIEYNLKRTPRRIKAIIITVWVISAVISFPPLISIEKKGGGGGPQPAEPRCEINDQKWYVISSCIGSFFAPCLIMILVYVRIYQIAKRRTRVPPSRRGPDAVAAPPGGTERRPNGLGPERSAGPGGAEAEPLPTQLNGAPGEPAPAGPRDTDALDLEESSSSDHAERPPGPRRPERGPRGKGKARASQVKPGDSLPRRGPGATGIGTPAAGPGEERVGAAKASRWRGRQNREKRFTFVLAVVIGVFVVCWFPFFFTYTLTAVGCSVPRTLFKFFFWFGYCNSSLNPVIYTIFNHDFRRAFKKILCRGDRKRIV
# [2] = biological target: Neuronal acetylcholine receptor; alpha3/beta4 (Homo sapiens, UniProt P30926+P32297); assay: Displacement of [125I]-epibatidine from human recombinant nAChR alpha3beta4 receptor expressed in CHO-K1 cells at 10 uM incubated for 60 mins by spectrophotometric analysis relative to control
# [3] = biological target: Sigma non-opioid intracellular receptor 1 (Homo sapiens) (UniProt Q99720); assay: Displacement of [3H] pentazocine from human sigma 1 receptor expressed in human Jurkat cells at 10 uM incubated for 120 mins by spectrophotometric analysis relative to control; settings: tested as the 2H-labelled form
# Chain of Sigma non-opioid intracellular receptor 1 (Homo sapiens) (Q99720 whole entry): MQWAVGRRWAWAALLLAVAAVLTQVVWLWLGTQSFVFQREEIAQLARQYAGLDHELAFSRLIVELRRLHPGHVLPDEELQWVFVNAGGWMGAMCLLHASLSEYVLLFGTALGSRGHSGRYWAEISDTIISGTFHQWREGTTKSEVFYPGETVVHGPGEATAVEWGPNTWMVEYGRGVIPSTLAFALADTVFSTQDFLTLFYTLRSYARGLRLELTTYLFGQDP
# [4] = biological target: Alpha-2C adrenergic receptor (Homo sapiens) (UniProt P18825); assay: Displacement of [3H]-rauwolscine from human recombinant adrenergic alpha-2c receptor expressed in CHO-K1 cells at 10 uM incubated for 60 mins by […] relative to control
# Chain of Alpha-2C adrenergic receptor (Homo sapiens) (P18825 whole entry): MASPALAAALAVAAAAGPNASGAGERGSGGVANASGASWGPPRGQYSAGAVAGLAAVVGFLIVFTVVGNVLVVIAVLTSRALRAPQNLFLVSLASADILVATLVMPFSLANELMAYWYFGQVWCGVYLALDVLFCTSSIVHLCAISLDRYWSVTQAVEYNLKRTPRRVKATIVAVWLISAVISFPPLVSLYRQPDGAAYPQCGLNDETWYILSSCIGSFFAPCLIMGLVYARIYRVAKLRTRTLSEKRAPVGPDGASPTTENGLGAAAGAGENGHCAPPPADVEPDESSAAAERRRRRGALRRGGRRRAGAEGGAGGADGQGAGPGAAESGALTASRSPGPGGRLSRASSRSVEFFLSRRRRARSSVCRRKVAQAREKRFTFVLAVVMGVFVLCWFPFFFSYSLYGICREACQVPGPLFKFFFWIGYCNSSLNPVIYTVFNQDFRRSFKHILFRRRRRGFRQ
smiles,measurement,setting,value
CN(C)CCc1c[nH]c2ccccc12.O=C(O)/C=C/C(=O)O,inhibition,[1],67.1%
same,inhibition,[1]; tested as the 2H-labelled form,69.1%
same,inhibition,[2],64.6%
same,inhibition,[2]; tested as the 2H-labelled form,63.5%
same,inhibition,[3],45%
same,inhibition,[4],58.4%
same,inhibition,[4]; tested as the 2H-labelled form,57.6%
